# Results published in US10081631B2, “2-(1H-indazol-3-yl)-1H-imidazo[4,5-C]pyridine and therapeutic uses thereof” (Samumed, LLC, priority 2014, dated 2018).
# Experiments:
# [1] = tested on: primary human fibroblasts derived from IPF patients (LL29 cells); assay: Inhibition of fibrosis: TGF-β1-treated primary human fibroblasts from IPF patients (LL29), αSMA staining; format: cell-based; conditions: Fibroblast, 96 h, TGF-β1 20 ng/mL, 4 days, % αSMA-positive cells
# In short: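 […] (0.1% DMSO) on LL29 cells in F12 with 1% FBS, with TGF-β1 (20 ng/mL) added 1 h after plating; 4 days at 37 °C. SYTOX-positive dead cells were excluded and the % αSMA-positive cells was imaged, normalized to TGF-β1/DMSO wells, triplicates; EC50 by non-linear regression.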
# [2] = tested on: Wnt activity (Sp5-Luc reporter, SW480 colon carcinoma cells); assay: Screening assay for Wnt activity: Sp5-Luc reporter gene assay in SW480 cells; format: cell-based; conditions: Homo sapiens, 42 h incubation, luminescence
# In short: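 IC50 values come from variable-slope four-parameter fits of luciferase signal normalized to DMSO wells. Stable Sp5-Luc reporter SW480 colon carcinoma cells were exposed to compounds in a 3-fold dilution series (source plates from 10 mM stock) for forty-two hours at 37 °C.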
Structure (SMILES),EC50 [1] [nM],IC50 [2] [nM]
"CN(C)c1cncc(-c2ccc3[nH]nc(-c4nc5c(N6CCCCC6)nccc5[nH]4)c3c2)c1 [Compound 163, N,N-Dimethyl-5-(3-(4-(piperidin-1-yl)-1H-imidazo[4,5-c]pyridin-2-yl)-1H-indazol-5-yl)pyridin-3-amine]",1550,3
"CCC(=O)Nc1cncc(-c2ccc3[nH]nc(-c4nc5c(-c6cccs6)nccc5[nH]4)c3c2)c1 [Compound 287, N-(5-(3-(4-(Thiophen-2-yl)-1H-imidazo[4,5-c]pyridin-2-yl)-1H-indazol-5-yl)pyridin-3-yl)propionamide]",62,10
"Nc1cncc(-c2ccc3[nH]nc(-c4nc5c(-c6ccccc6F)nccc5[nH]4)c3c2)c1 [Compound 55, 5-(3-(4-(2-Fluorophenyl)-1H-imidazo[4,5-c]pyridin-2-yl)-1H-indazol-5-yl)pyridin-3-amine]",17,4.1
"CC(C)(C)C(=O)Nc1cncc(-c2ccc3[nH]nc(-c4nc5c(-c6cccnc6)nccc5[nH]4)c3c2)c1 [Compound 86, N-(5-(3-(4-(Pyridin-3-yl)-1H-imidazo[4,5-c]pyridin-2-yl)-1H-indazol-5-yl)pyridin-3-yl)pivalamide]",993,17.9
"CS(=O)(=O)NCc1cc(F)cc(-c2nccc3[nH]c(-c4n[nH]c5ccc(-c6cncc(NC(=O)Cc7ccccc7)c6)cc45)nc23)c1 [Compound 400, N-(5-(3-(4-(3-Fluoro-5-(methylsulfonamidomethyl)phenyl)-1H-imidazo[4,5-c]pyridin-2-yl)-1H-indazol-5-yl)pyridin-3-yl)-2-phenylacetamide]",9,> 10000
"c1cncc(-c2ccc3[nH]nc(-c4nc5c(-c6cccnc6)nccc5[nH]4)c3c2)c1 [Compound 82, 4-(Pyridin-3-yl)-2-(5-(pyridin-3-yl)-1H-indazol-3-yl)-1H-imidazo[4,5-c]pyridine]",9,8
"CCNCc1cncc(-c2ccc3[nH]nc(-c4nc5c(-c6ccccn6)nccc5[nH]4)c3c2)c1 [Compound 136, N-((5-(3-(4-(Pyridin-2-yl)-1H-imidazo[4,5-c]pyridin-2-yl)-1H-indazol-5-yl)pyridin-3-yl)methyl)ethanamine]",9,3060
"O=C(CC1CCNCC1)Nc1cncc(-c2ccc3[nH]nc(-c4nc5c(-c6cccc(F)c6)nccc5[nH]4)c3c2)c1 [Compound 1777, N-(5-(3-(4-(3-Fluorophenyl)-1H-imidazo[4,5-c]pyridin-2-yl)-1H-indazol-5-yl)pyridin-3-yl)-2-(piperidin-4-yl)acetamide]",107,243
"CC(=O)c1ccc(-c2nccc3[nH]c(-c4n[nH]c5ccc(-c6cncc(NC(=O)C7CCCCC7)c6)cc45)nc23)s1 [Compound 386, N-(5-(3-(4-(5-Acetylthiophen-2-yl)-1H-imidazo[4,5-c]pyridin-2-yl)-1H-indazol-5-yl)pyridin-3-yl)cyclohexanecarboxamide]",536,476
"CC(C)(C)C(=O)Nc1cncc(-c2ccc3[nH]nc(-c4nc5c(-c6ccc(F)cc6)nccc5[nH]4)c3c2)c1 [Compound 34, N-(5-(3-(4-(4-fluorophenyl)-1H-imidazo[4,5-c]pyridin-2-yl)-1H-indazol-5-yl)pyridin-3-yl)pivalamide]",9,13
"CN(C)Cc1cncc(-c2ccc3[nH]nc(-c4nc5c(N6CCCCC6)nccc5[nH]4)c3c2)c1 [Compound 169, N,N-Dimethyl-1-(5-(3-(4-(piperidin-1-yl)-1H-imidazo[4,5-c]pyridin-2-yl)-1H-indazol-5-yl)pyridin-3-yl)methanamine]",171,4020
"O=C(Nc1cncc(-c2ccc3[nH]nc(-c4nc5c(-c6ccncc6)nccc5[nH]4)c3c2)c1)C1CCCCC1 [Compound 126, N-(5-(3-(4-(Pyridin-4-yl)-1H-imidazo[4,5-c]pyridin-2-yl)-1H-indazol-5-yl)pyridin-3-yl)cyclohexanecarboxamide]",9990,1190
"Cc1ccc(-c2nccc3[nH]c(-c4n[nH]c5ccc(-c6cncc(N)c6)cc45)nc23)s1 [Compound 341, 5-(3-(4-(5-Methylthiophen-2-yl)-1H-imidazo[4,5-c]pyridin-2-yl)-1H-indazol-5-yl)pyridin-3-amine]",9,1.3
"CN(C)CCNc1cc(F)cc(-c2nccc3[nH]c(-c4n[nH]c5ccc(-c6cncc(CNCC7CCCC7)c6)cc45)nc23)c1 [Compound 440, N^1-(3-(2-(5-(5-(((Cyclopentylmethyl)amino)methyl)pyridin-3-yl)-1H-indazol-3-yl)-1H-imidazo[4,5-c]pyridin-4-yl)-5-fluorophenyl)-N^2,N^2-dimethylethane-1,2-diamine]",9,539
"COc1cncc(-c2ccc3[nH]nc(-c4nc5c(-c6cccc(F)c6)nccc5[nH]4)c3c2)c1 [Compound 1780, 4-(3-Fluorophenyl)-2-(5-(5-methoxypyridin-3-yl)-1H-indazol-3-yl)-1H-imidazo[4,5-c]pyridine]",19,25
"Cc1ccc(-c2nccc3[nH]c(-c4n[nH]c5ccc(-c6cncc(NC(=O)C7CCC7)c6)cc45)nc23)s1 [Compound 358, N-(5-(3-(4-(5-Methylthiophen-2-yl)-1H-imidazo[4,5-c]pyridin-2-yl)-1H-indazol-5-yl)pyridin-3-yl)cyclobutanecarboxamide]",21,9
"O=C(Nc1cncc(-c2ccc3[nH]nc(-c4nc5c(N6CCCCC6)nccc5[nH]4)c3c2)c1)C1CC1 [Compound 175, N-(5-(3-(4-(Piperidin-1-yl)-1H-imidazo[4,5-c]pyridin-2-yl)-1H-indazol-5-yl)pyridin-3-yl)cyclopropanecarboxamide]",115,278
"CS(=O)(=O)NCc1cc(F)cc(-c2nccc3[nH]c(-c4n[nH]c5ccc(-c6cncc(NC(=O)c7ccccc7)c6)cc45)nc23)c1 [Compound 401, N-(5-(3-(4-(3-Fluoro-5-(methylsulfonamidomethyl)phenyl)-1H-imidazo[4,5-c]pyridin-2-yl)-1H-indazol-5-yl)pyridin-3-yl)benzamide]",9990,32
"CCCCC(=O)Nc1cncc(-c2ccc3[nH]nc(-c4nc5c(-c6ccoc6)nccc5[nH]4)c3c2)c1 [Compound 278, N-(5-(3-(4-(Furan-3-yl)-1H-imidazo[4,5-c]pyridin-2-yl)-1H-indazol-5-yl)pyridin-3-yl)pentanamide]",291,15
"O=C(Nc1cncc(-c2ccc3[nH]nc(-c4nc5c(-c6ccsc6)nccc5[nH]4)c3c2)c1)C1CCCC1 [Compound 255, N-(5-(3-(4-(Thiophen-3-yl)-1H-imidazo[4,5-c]pyridin-2-yl)-1H-indazol-5-yl)pyridin-3-yl)cyclopentanecarboxamide]",1220,59.4
"CN(C)c1cncc(-c2ccc3[nH]nc(-c4nc5c(-c6ccccc6F)nccc5[nH]4)c3c2)c1 [Compound 59, 5-(3-(4-(2-Fluorophenyl)-1H-imidazo[4,5-c]pyridin-2-yl)-1H-indazol-5-yl)-N,N-dimethylpyridin-3-amine]",18,9.4
"Cc1ccc(-c2nccc3[nH]c(-c4n[nH]c5ccc(-c6cncc(NC(=O)C(C)C)c6)cc45)nc23)s1 [Compound 347, N-(5-(3-(4-(5-Methylthiophen-2-yl)-1H-imidazo[4,5-c]pyridin-2-yl)-1H-indazol-5-yl)pyridin-3-yl)isobutyramide]",38,7
"CCCCC(=O)Nc1cncc(-c2ccc3[nH]nc(-c4nc5c(-c6cc(F)cc(NCCN(C)C)c6)nccc5[nH]4)c3c2)c1 [Compound 434, N-(5-(3-(4-(3-((2-(Dimethylamino)ethyl)amino)-5-fluorophenyl)-1H-imidazo[4,5-c]pyridin-2-yl)-1H-indazol-5-yl)pyridin-3-yl)pentanamide]",459,16
"CCC(=O)Nc1cncc(-c2ccc3[nH]nc(-c4nc5c(N6CCCCC6)nccc5[nH]4)c3c2)c1 [Compound 157, N-(5-(3-(4-(Piperidin-1-yl)-1H-imidazo[4,5-c]pyridin-2-yl)-1H-indazol-5-yl)pyridin-3-yl)propionamide]",71,183
"CC(C)C(=O)Nc1cncc(-c2ccc3[nH]nc(-c4nc5c(-c6cccs6)nccc5[nH]4)c3c2)c1 [Compound 295, N-(5-(3-(4-(Thiophen-2-yl)-1H-imidazo[4,5-c]pyridin-2-yl)-1H-indazol-5-yl)pyridin-3-yl)isobutyramide]",186,30.8
"CN1CCN(c2nccc3[nH]c(-c4n[nH]c5ccc(-c6cncc(NC(=O)C7CCCC7)c6)cc45)nc23)CC1 [Compound 229, N-(5-(3-(4-(4-Methylpiperazin-1-yl)-1H-imidazo[4,5-c]pyridin-2-yl)-1H-indazol-5-yl)pyridin-3-yl)cyclopentanecarboxamide]",9990,711
"Fc1cccc(-c2nccc3[nH]c(-c4n[nH]c5ccc(-c6cncc(CN7CCC(F)(F)C7)c6)cc45)nc23)c1 [Compound 25, 2-(5-(5-((3,3-Difluoropyrrolidin-1-yl)methyl)pyridin-3-yl)-1H-indazol-3-yl)-4-(3-fluorophenyl)-1H-imidazo[4,5-c]pyridine]",56,10
"FC1(F)CCN(Cc2cncc(-c3ccc4[nH]nc(-c5nc6c(N7CCCCC7)nccc6[nH]5)c4c3)c2)C1 [Compound 181, 2-(5-(5-((3,3-Difluoropyrrolidin-1-yl)methyl)pyridin-3-yl)-1H-indazol-3-yl)-4-(piperidin-1-yl)-1H-imidazo[4,5-c]pyridine]",80.5,67
